Entries after “also recorded” stand apart in the source; their conditions may differ.
Legend:
Assay type in all cases: in vivo
CK-p25 Tg mice [1] = assay: Fear conditioning learning in CK-p25 Tg mice after neurodegeneration; settings: 6 weeks p25 induction, then daily 1.2 g/kg for 4 weeks, vs saline, P=0.009
From the text: (§1) Learning tests: All behavioral testing is described in Fischer et al. (3).
Reinstatement of learning behavior through inhibition of HDAC. Whether sustained inhibition of HDACs would reinstate learning behavior and recover access to long-term memories in CK-p25 Tg mice that had developed synaptic and neuronal loss was investigated. P25 was induced in 11 month old CK-p25 Tg mice for 6 weeks. Afterwards p25 expression was repressed and one group of CK-p25 Tg mice was subjected to daily sodiumbutyrate (SB) injection (1.2 g/kg) for 4 weeks (n=9), whereas the other group received saline injection (n=9). […] To this end p25 expression was induced in 11-month old CK-p25 mice for 6 weeks, before one group was injected daily for 4 weeks with SB whereas the control group received saline injection (FIG. 4a).

CK-p25 Tg mice [2] = assay: Recovery of long-term fear memories in CK-p25 Tg mice; settings: CK-p25 Tg mice trained, 4 weeks rest, 6 weeks p25, then 1.2 g/kg daily for 4 weeks; P=0.0496
Method: The effect of HDAC inhibition on the recovery of inaccessible long-term memories was evaluated. Eleven month old CK-p25 Tg mice were trained in the fear conditioning paradigm and returned to their home cages for 4 weeks. Subsequently p25 was induced for 6 weeks before the mice were injected with either saline (vehicle, n=12) or SB (1.2 g/kg, n=14) for 4 weeks (daily). […] (FIG. 4f). […] Thus chronic injection of SB led to the recovery of memories in CK-p25 Tg mice that had developed severe neuronal loss.

C57BL/6J mice = assay: Water maze paradigm (spatial learning) in wild type mice; settings: daily ip for 4 weeks; vs vehicle group; P<0.0001
From the text: as §1
Mechanism underlying EE. Other than a few genes involved in synaptic function, relatively little is known about the mechanism underlying EE (12-14). Since histone acetylation, an epigenetic mechanism regulating gene expression via chromatin remodeling, has recently been implicated in synaptic plasticity and learning behavior (15-18), the induction of a transcriptional program by EE that leads to activation of plasticity genes was evaluated. Wild type mice were subjected to EE and hippocampal and cortical brain lysates were obtained 3, 24 h or 2 weeks later (n=3/group) by acid extraction and probed with antibodies detecting histone-tail modification that indicate active chromatin. Increases in hippocampal H3 (K-9, K14) and H4 (K-5) and in cortical H3 (K-9) and H4 (K-5) acetylation were observed. […] No changes in H4 acetylation were observed when the Ac-H4 (K,8,12,16) antibody was used, which is likely due to the fact that H4-K16 is a marker of condensed chromatin. EE induced hippocampal and cortical histone 3 (H3) and histone 4 (H4) acetylation and methylation as soon as 3 hours after treatment (FIGS. 3a, b). […]
The over expression of HDAC2 impairs spatial learning. […] The swimming path of the mice was recorded by a video camera and analyzed by the Videomot 2 software (TSE). […]

CK-p25 Tg mice [3] = assay: Recovery of long-term spatial memories in CK-p25 Tg mice (water maze reminder-training); settings: daily injection after 6 weeks p25 expression
From the text: Recovery of spatial memories upon environmental enrichment and sodiumbutyrate injection. CK-p25 Tg mice in which p25 expression was repressed and control mice were trained in the water maze paradigm until all mice reliably found the hidden platform. Afterwards all mice were returned to their home cages for 4 weeks to allow the consolidation of hippocampus independent long-term memories. Afterwards p25 expression was induced for 6 weeks, followed by p25 repression. […] To measure the retrieval of long-term memory mice were instead exposed to only 2 reminder-training sessions on a single day. […] The recovery of spatial memories upon environmental enrichment was evaluated by a similar experiment, except that after 6 weeks of p25 expression mice were either subjected to EE or returned to their home cages for 4 weeks. […] To evaluate the recovery of spatial memories upon SB injection, a similar experiment was performed as described above, but instead of EE, one group of CK-p25 Tg mice (n=10) received daily injection of SB, whereas the other group was injected with vehicle (n=10).

CCCC(=O)[O-].[Na+] [SB, sodiumbutyrate]
associative learning (freezing behavior) (CK-p25 Tg mice [1]): significantly enhanced
freezing behavior in long-term memory test (CK-p25 Tg mice [2]): performed significantly better than vehicle injected CK-p25 Tg mice
escape latency in water maze paradigm (C57BL/6J mice): shorter escape latency
recovery of long-term spatial memories (CK-p25 Tg mice [3]): leads to the recovery of long-term spatial memories; also recorded: spatial long-term memories recover after neuronal loss

— patent publication US8088951B2, “Epigenetic mechanisms re-establish access to long-term memory after neuronal loss” (Massachusetts Institute of Technology, priority 2006, dated 2012)
